Assay [1] deals with T1, Corticotropin-releasing factor receptor 2/Corticotropin-releasing factor-binding protein (Homo sapiens, UniProt P24387+Q13324).
T1 sequence (Q13324 whole entry): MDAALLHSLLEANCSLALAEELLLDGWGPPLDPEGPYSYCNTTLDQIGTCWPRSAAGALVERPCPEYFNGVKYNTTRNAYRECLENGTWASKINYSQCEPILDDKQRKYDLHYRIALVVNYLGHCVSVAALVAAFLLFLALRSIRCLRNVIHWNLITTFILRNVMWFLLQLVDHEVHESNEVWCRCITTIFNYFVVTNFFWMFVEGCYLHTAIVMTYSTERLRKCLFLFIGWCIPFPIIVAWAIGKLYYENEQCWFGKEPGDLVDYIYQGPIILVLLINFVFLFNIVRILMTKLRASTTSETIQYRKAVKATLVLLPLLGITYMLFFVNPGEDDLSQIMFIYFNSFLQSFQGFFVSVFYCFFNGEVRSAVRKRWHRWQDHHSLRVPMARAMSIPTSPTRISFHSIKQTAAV
T1 sequence (P24387 whole entry): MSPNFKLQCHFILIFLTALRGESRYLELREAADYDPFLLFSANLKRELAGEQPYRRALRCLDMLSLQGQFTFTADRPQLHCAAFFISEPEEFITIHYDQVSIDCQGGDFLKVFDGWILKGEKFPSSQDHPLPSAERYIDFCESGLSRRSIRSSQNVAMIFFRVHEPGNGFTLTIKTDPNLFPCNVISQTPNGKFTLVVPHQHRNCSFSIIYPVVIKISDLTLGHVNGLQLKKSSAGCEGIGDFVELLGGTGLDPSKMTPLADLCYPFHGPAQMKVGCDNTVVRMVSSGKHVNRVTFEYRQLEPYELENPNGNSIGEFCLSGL
The experiment in a line: activators of CRF receptor 2 with binding protein – uHTS hits, confirmation (AID 602473). As to conditions: read-out: EC50_Mean. Type of assay: functional.

Assay [2] addresses T2, RNA-binding protein pos-1 (Caenorhabditis elegans, UniProt G5EF15).
T2 sequence (G5EF15 whole entry): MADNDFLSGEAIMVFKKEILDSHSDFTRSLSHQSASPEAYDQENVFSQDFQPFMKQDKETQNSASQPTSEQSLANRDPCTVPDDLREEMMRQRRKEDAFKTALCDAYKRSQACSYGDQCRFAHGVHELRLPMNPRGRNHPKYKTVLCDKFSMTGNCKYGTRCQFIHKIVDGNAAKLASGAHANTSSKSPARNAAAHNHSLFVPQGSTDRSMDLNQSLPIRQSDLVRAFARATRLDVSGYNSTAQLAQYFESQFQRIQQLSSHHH
The experiment in a line: disruptors of C. elegans POS-1 RNA interaction – biochemical, fluorescence polarization, dose response (AID 1964).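 Also: purified POS-1 fused to maltose binding protein made in E. coli; potency of compounds blocking POS-1 binding to fluorescent RNA.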 Background: Fluorescence polarisation rises when a labelled molecule tumbles more slowly, as on binding a larger partner.

Assay [3] has as its system H4. The experiment in a line: Luminescence Cell-Based Dose Response HTS to Identify Activators of 5'UTR Stem-Loop Driven Prion Protein mRNA Translation in H4 Neuroglioblastoma Cells. [Related pubchem assays: 1829 (Project Summary), 1814 (Primary HTS)]. The following applies: Homo sapiens. It is filed as functional.
The target in assay [4] is T3, Zinc finger protein mex-5 (Caenorhabditis elegans, UniProt Q9XUB2).
T3 sequence (Q9XUB2 whole entry): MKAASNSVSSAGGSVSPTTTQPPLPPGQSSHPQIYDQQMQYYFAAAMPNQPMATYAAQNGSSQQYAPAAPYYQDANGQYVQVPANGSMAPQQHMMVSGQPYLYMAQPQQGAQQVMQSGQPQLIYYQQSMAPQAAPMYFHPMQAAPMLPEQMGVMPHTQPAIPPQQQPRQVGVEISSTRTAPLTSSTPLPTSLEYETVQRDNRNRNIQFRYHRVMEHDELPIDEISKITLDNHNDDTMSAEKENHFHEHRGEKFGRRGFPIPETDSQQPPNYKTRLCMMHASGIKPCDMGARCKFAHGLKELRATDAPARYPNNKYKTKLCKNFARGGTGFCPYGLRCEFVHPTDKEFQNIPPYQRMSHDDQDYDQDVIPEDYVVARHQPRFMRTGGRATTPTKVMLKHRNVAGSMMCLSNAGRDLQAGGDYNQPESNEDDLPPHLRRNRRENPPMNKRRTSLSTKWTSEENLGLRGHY
The assay is described as follows: potency of MEX-5 RNA-binding blockers – biochemical, C. elegans, fluorescence polarization, dose response (AID 1960).

Assay [5] in a line: Luminescence Cell-Based Dose Confirmation HTS to Identify Activators of 5'UTR Stem-Loop Driven Alpha-Synuclein mRNA Translation in H4 Neuroglioblastoma Cells. [Related pubchem assays: 1829 (Project Summary), 1814 (Primary HTS)]. Type of assay: functional.
A short description of assay [6]: Luminescence Cell-Based Dose Response HTS to Identify Activators of Luciferase Translation or Activity in H4 […] Cells. [Related pubchem assays: 1829 (Project Summary), 1814 (Primary HTS)]. It is filed as functional.
The target of assay [7] is Heat shock protein HSP 90-alpha (Homo sapiens, UniProt P07900). The assay is described as follows: Luminescence-based dose response biochemical high throughput screening assay for inhibitors of the Heat Shock Protein 90 (HSP90). [Related pubchem assays: 1831 (Summary AID.), 1846 (Confirmation screen.), 1789 (Primary screen.)].
In assay [8] the test system is HEK293. The assay is described as follows: Cytotoxicity assay in HEK293 cells. [Related pubchem assays (depositor defined):AID1266, AID1269, AID1270, AID1271, AID1280, AID1281, AID1282, AID1283, AID1287, AID1289, AID1290, AID1291, AID1292, AID1293, AID1294, AID1295, AID1299, AID1302, AID1364, AID1365, AID1366, AID1367, AID1369, AID1370, AID1371, AID1372, AID1373, AID1374, AID1375, AID1384 …. Type of assay: functional, cell-based. The following applies: Homo sapiens.

Assay [9] deals with HEK293. The assay is described as follows: PMA/Ionomycin induced NF-kB luciferase assay in 293- NF-kB-Luc stable cells. [Related pubchem assays: 1299, 1270, 1295, 1375, 1287, 1281, 1293, 1291, 1289, 1280, 465, 1364, 1282, 1372, 1365, 1370, 1367, 1366, 1269, 1373, 1292, 1290, 1302, 1371, 1283, 1271, 1294, 1374, 1368, 1369 ]. It is filed as functional, cell-based. As to conditions: Homo sapiens.

Assay [10] concerns the target Luciferin 4-monooxygenase (Photinus pyralis, UniProt P08659). The experiment in a line: In vitro luciferase assay using purified luciferase. [Related pubchem assays: 1299, 1270, 1295, 1375, 1287, 1281, 1293, 1291, 1289, 1280, 465, 1364, 1282, 1372, 1365, 1370, 1367, 1366, 1266, 1373, 1292, 1290, 1302, 1371, 1283, 1271, 1294, 1374, 1368, 1369 ].
Assay [11] relates to HEK293. The experiment in a line: TNF Induced NF-kB Luciferase in 293-NF-kB-Luc Stable Cells. [Related pubchem assays: 1266, 1299, 1269, 1373, 1292, 1290, 1302, 1371, 1283, 1270, 1295, 1271, 1375, 1294, 1374, 1281, 1293, 1291, 1289, 1280, 465, 1368, 1364, 1282, 1372, 1365, 1369, 1370, 1367, 1366 ]. As to conditions: Homo sapiens. It is filed as functional, cell-based.
A short description of assay [12]: viability loss in Vero cells – cytotoxicity control for Vif-APOBEC3G degradation inhibitor project, dose response (AID 1117358). It is filed as functional. The following applies: Vero.
Assay [13] in a line: SELE mRNA upregulation in endothelial cells – cell-based, HUVEC, RT-qPCR, dry powder, orthogonal assay for E-selectin inducer project, confirmation (AID 1117270). It is filed as functional. A general note: Real-time PCR tracks product formation cycle by cycle.
In assay [14] the target is T4, Protein skinhead-1 (Caenorhabditis elegans, UniProt P34707).
T4 sequence (P34707 whole entry): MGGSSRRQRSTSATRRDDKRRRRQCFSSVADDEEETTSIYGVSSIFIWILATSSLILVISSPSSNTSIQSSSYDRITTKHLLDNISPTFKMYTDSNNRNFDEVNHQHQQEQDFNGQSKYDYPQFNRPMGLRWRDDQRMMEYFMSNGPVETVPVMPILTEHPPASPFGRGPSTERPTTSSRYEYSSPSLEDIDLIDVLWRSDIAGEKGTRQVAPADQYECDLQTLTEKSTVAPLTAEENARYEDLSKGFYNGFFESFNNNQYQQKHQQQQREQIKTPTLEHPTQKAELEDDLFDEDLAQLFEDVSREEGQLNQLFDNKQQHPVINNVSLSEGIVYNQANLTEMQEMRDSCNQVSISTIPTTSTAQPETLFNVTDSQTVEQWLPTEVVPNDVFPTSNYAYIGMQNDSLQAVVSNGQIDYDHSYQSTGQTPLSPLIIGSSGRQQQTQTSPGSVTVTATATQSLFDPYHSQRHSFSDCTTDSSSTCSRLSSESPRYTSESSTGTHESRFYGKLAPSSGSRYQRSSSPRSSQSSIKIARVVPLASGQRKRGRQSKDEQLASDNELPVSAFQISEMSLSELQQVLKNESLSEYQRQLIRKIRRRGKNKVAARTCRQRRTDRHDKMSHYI
Type of assay: functional.

The source made the active and inactive calls.

Sequence of Luciferin 4-monooxygenase (P08659 whole entry): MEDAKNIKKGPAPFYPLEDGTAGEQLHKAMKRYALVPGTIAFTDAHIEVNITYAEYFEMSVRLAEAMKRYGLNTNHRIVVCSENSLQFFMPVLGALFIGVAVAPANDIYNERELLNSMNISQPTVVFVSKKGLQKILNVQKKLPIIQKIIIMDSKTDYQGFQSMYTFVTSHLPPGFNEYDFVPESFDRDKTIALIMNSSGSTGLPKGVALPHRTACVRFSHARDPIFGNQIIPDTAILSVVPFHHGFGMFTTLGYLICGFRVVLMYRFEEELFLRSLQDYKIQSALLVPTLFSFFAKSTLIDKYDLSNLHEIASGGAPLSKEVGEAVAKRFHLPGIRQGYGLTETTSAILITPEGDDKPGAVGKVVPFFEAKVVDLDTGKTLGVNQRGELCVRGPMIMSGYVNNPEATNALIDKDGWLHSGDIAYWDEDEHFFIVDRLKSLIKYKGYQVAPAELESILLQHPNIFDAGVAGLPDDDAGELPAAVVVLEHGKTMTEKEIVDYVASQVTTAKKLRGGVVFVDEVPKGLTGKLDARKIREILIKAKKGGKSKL

Consider `Cc1ccc2oc(=O)c(/C=C(\O)c3cccs3)nc2c1`, for which the EC50 in assay [1] was 4.87 µM (active); in assay [2], 21.3 µM (inconclusive); in [3], 16.5 µM (active); in [4], 6.82 µM (inconclusive); in assay [5] it was 16.6 µM (active); in assay [6], 13.1 µM (active). For the same molecule, in assay [7], the IC50 (commonly the concentration that gives 50% inhibition) was 5.05 µM (active).

Take `Cc1ccc2[nH]c(=O)c(C(=O)/C=C/c3ccccc3Cl)c(-c3ccccc3)c2c1`: the EC50 in [8] is 5.72 µM (inactive); in [9], 1.17 µM (active); in [10], > 8 µM (not active); in assay [11], 2.6 µM (active).

For the molecule `COc1cc2c(cc1NC(=O)CC1SC(N3CCCC3)=NC1=O)oc1ccccc12` (centres undefined), the CC50 (as a rule, the concentration at which the toxic effect on the cells reaches its halfway point) in assay [12] was > 40 µM (active).

In the case of `Cc1cccc(NC(=O)NCc2ccc3c(c2)cc(C)n3C)c1`, the AC50 (usually the midpoint of the concentration-response curve, whichever way the signal moves) in assay [13] was 0.306 µM (active). Besides, the IC50 in assay [14] is > 100 µM (inactive).

Values taken from ChEMBL document CHEMBL1201862, “PubChem BioAssay data set” (2004).
